{"source": "patent US20190169134A1", "about": "“NOVEL CLASS OF QUINOLONE HETEROCYCLIC AROMATIC MOLECULES FOR CANCER TREATMENT” (RenoTarget Therapeutics, Inc., priority 2016, published 2019)", "key": {"HCC827 P cells": {"system": "HCC827 P cells", "test": "Western blot of EGFR downstream signaling", "assay_type": "cell-based, human", "conditions": "24 hrs", "method": "The cells were washed with PBS, harvested and cellular proteins were extracted. […] Protein or phosphor-protein levels of pEGFRTyr1068, pEGFRTry845, pAktSer473, pStat3Tyr705, MEK1/2, pMEK1/2, p27, and pp70 S6 kinase 2 were determined by Western blot using specific antibodies. β-actin was used as loading control.\nHCC827 P or other indicated cells at exponential growth phase were treated with indicated compounds for 24 hrs. The cells were washed with PBS, harvested and cellular proteins were extracted."}, "22RV1": {"system": "22RV1", "test": "Cell growth inhibition by SRB method", "assay_type": "cell-based, human", "conditions": "Homo sapiens, 22Rv1, 72 h, 72 hrs exposure, SRB", "source_text": "(§1) Six human cancer cell lines have been used to evaluate effects of the compounds on proliferation of cancer cells. These cell lines include HCC827-P (or HCC827 parent cells), human non-small lung cancer cells, Parent NSCLC HCC827 cell line (which harbors EGFR gene amplification, Exon 19 (E19) deletion, and Exon 21 mutation (Wang, Ramakrishnan et al. 2010), and is an EGFRi sensitive cell line (Kim, Kim et al. 2010)); HCC827-TR16 (Tarceva-resistant HCC727 cell line), HCC827-OR16 (AZD9291-resistant HCC727 cell line), LNCaP (human prostate cancer cells—a hormonal-therapy sensitive cell line (Wang, Liu et al. 1997)); 22RV1 (human prostate cancer cells—a hormonal-therapy resistant cell line (Sramkoski, Pretlow et al. 1999)); and ACHN (human renal adenocarcinoma cells (Park, Jung et al. 2003)). LNCaP cells and 22RV1 cells were purchased from the American Type Culture Collection (Rockville, Md.) and others were gifts of friends.\n(§2) All cell lines were maintained in RPMI-1640 (GIBCO, Gaithersburg, Md.) with 10% heat-inactivated bovine serum (FBS) (Wang, Ossowski et al. 2004).\n(§3) Sulforhodamine B (SRB) was used to estimate cell growth as described previously (Skehan, Storeng et al. 1990). Briefly, cells grown exponentially were aliquoted into 96-well plates at a density of 2,500 to 5,000 cells/200 μl per well in RPMI 1640 medium containing 10% FBS. After twenty-four hours, the cells were exposed to indicated concentrations of tested compounds for 72 hrs or otherwise as indicated. The cells were then fixed with 10% trichloride acetic acid for 2 h at 4° C. The 10% trichloride acetic acid was removed, and the dishes were washed 5 times with tape water, and air-dried. The fixed and dried cells were then stained with 0.4% SRB in 1% acetic acid for 25 min, and the dishes were washed 5 times with 1% acetic acid and air-dried overnight. 200 μl of 10 mM of Tris buffer (pH 10.0) were added, and the dishes were rotated to completely dissolve the color. Absorbance at 570 nm, with a reference wavelength 690 nm, was measured on a 96-well microplate reader (SPECTRO Star^Nano, BMG Labtech). Mean, standard deviation (SD) and the percent of growth inhibition at each concentration point of the treatment were calculated. The percent of growth inhibition as defined as (1−T/C)×100 where T is the mean of the absorbance at 570 nm from the treatment, and C from control (drug vehicle only). IC50 was calculated using Sigma-plot software by regression of growth-concentration curve from each drug treatment."}, "ACHN": {"system": "ACHN", "test": "Cell growth inhibition by SRB method", "assay_type": "cell-based, human", "conditions": "Homo sapiens, ACHN, 72 hrs exposure", "source_text": "as §1, §2, §3"}, "LNCaP": {"system": "LNCaP", "test": "Cell growth inhibition by SRB method", "assay_type": "cell-based, human", "conditions": "Homo sapiens, LNCaP; 72 hrs exposure, SRB", "source_text": "as §1, §2, §3"}, "HCC827TR16": {"system": "HCC827TR16", "test": "Cell growth inhibition by SRB method", "assay_type": "cell-based", "conditions": "Homo sapiens, Tarceva-resistant line, 72 hrs exposure", "source_text": "as §1\nTo evaluate activities of new compounds on growth of EGFR-inhibitor-resistant cells, two EGFRi-resistant cell lines, i.e., HCC827-TR16 and HCC827-OR16 were established using a method described by Eberlein et al. (Eberlein, Stetson et al. 2015). […] Resistant cells were collected and stabilized after 5 weeks (cycle 5). […] The resistant cells were sorted using 96-well dishes by culturing cells with density of 0.1, 1, 10, and 100 cells per well.\nas §2, §3"}}}
{"smiles": "C#Cc1cccc(Nc2ncnc3cc(OCCOC)c(NC(=O)c4ccc(F)c([N+](=O)[O-])c4)cc23)c1", "note": "[Reno647, 4-Fluoro-N-[4-(3-ethynyl-phenylamino)-7-(2-methoxy-ethoxy)-quinazolin-6-yl]-3-nitro-benzamide]", "values": [{"measurement": "Phospho-Akt level", "setting": "HCC827 P cells", "result": "significantly reduced"}, {"measurement": "level of pEGFRTyr845", "setting": "HCC827 P cells", "result": "significantly decreased"}, {"measurement": "level of pEGFRTyr1068", "setting": "HCC827 P cells", "result": "significantly decreased"}, {"measurement": "level of pERK1/2 (Ras/Raf/MEK pathway)", "setting": "HCC827 P cells", "result": "significant decrease"}, {"measurement": "p27 level", "setting": "HCC827 P cells", "result": "induction"}, {"measurement": "pp-70-6S activity (p70-S6 activation)", "setting": "HCC827 P cells", "result": "significant decreases"}, {"measurement": "total MEK1/2 protein level", "setting": "HCC827 P cells", "result": "no changes"}, {"measurement": "IC50", "setting": "22RV1", "result": "~500", "unit": "nM"}, {"measurement": "IC50", "setting": "ACHN", "result": 1250, "unit": "nM"}, {"measurement": "IC50", "setting": "LNCaP", "result": 1250, "unit": "nM"}, {"measurement": "IC50", "setting": "HCC827TR16", "result": 1300, "unit": "nM"}]}
